According to PubChem BioAssay (NCI):
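Each compound was tested at five concentrations against cells in 96-well plates for 48 hours. TGI: total growth inhibition.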

Assays:
Experiment in all cases: inhibition of tumour cell growth, NCI panel, 48 h
[1] = tested on: OVCAR-4 ovarian
[2] = tested on: SK-MEL-2 melanoma
[3] = tested on: HL-60(TB) leukemia
[4] = tested on: SNB-19 CNS
[5] = tested on: U251 CNS
[6] = tested on: OVCAR-8 ovarian
[7] = tested on: M14 melanoma
[8] = tested on: 786-0 renal
[9] = tested on: NCI-H460 lung
[10] = tested on: SF-539 CNS
[11] = tested on: SK-MEL-5 melanoma
[12] = tested on: LOX IMVI melanoma
[13] = tested on: EKVX NSCLC
[14] = tested on: UACC-257 melanoma
[15] = tested on: UO-31 renal
[16] = tested on: COLO 205 colon
[17] = tested on: OVCAR-3 ovarian
[18] = tested on: UACC-62 melanoma
[19] = tested on: HCT-116 colon
[20] = tested on: HCC-2998 colon
[21] = tested on: A549 NSCLC
[22] = tested on: CAKI-1 renal
[23] = tested on: OVCAR-5 ovarian
[24] = tested on: SF-295 CNS
[25] = tested on: RXF 393 renal
[26] = tested on: MDA-MB-231 breast
[27] = tested on: MDA-MB-435
[28] = tested on: T-47D breast
[29] = tested on: SK-MEL-28 melanoma
[30] = tested on: HT29 colon
[31] = tested on: HS 578T breast
[32] = tested on: NCI-H522 lung
[33] = tested on: RPMI-8226 leukemia
[34] = tested on: SF-268 CNS
[35] = tested on: NCI/ADR-RES ovarian
[36] = tested on: MALME-3M melanoma
[37] = tested on: SW-620 colon
[38] = tested on: ACHN renal
[39] = tested on: TK-10 renal
[40] = tested on: SN12C renal
[41] = tested on: MCF7 breast
[42] = tested on: HOP-62 NSCLC
[43] = tested on: PC-3 prostate
[44] = tested on: CCRF-CEM leukemia
[45] = tested on: KM12 colon
[46] = tested on: NCI-H23 lung
[47] = tested on: NCI-H226 lung
[48] = tested on: HCT-15 colon
[49] = tested on: IGROV1 ovarian
[50] = tested on: SK-OV-3 ovarian
[51] = tested on: MOLT-4 leukemia
[52] = tested on: HOP-92 NSCLC
[53] = tested on: DU-145 prostate
[54] = tested on: K-562 leukemia

Measured: TGI

S=c1[nH]n2c(Cc3ccccc3)nnc2s1
> 100 µM: [1] | [2] | [3] | [4] | [5] | [6] | [7] | [8] | [9] | [10] | [11] | [12] | [13] | [14] | [15] | [16] | [17] | [18] | [19] | [20] | [21] | [22] | [23] | [24] | [25] | [26] | [27] | [28] | [29] | [30] | [31] | [32] | [33] | [34] | [35] | [36] | [37] | [38] | [39] | [40] | [41] | [42] | [43] | [44] | [45] | [46] | [47] | [48] | [49] | [50] | [51] | [52] | [53] | [54]
